Experimental data reported in publication PMC10136296, “Biological Screening and Crystallographic Studies of Hydroxy γ-Lactone Derivatives to Investigate PPARγ Phosphorylation Inhibition” (Biomolecules, 2023).

Experiments:
[1] = target: T1, human PPARγ subtype (hPPARγ), Gal4-PPARγ-LBD (Homo sapiens, UniProt P37231); assay: GAL4-PPAR transactivation assay, agonist mode; assay type: cell-based; details: HepG2, up to 100 µM; rosiglitazone maximum = 100%
T1 construct: expressed in transfected cells; host or cells: HepG2
T1 sequence (P37231 238-503 limits assumed): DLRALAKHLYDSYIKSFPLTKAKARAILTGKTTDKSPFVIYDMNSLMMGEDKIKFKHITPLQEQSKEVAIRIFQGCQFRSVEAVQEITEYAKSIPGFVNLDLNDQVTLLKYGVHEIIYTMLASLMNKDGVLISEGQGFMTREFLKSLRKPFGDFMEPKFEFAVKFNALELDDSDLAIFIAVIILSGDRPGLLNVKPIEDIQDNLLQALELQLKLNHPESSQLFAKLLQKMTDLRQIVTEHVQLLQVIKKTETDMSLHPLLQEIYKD
Excerpt: (§1) Reference compounds, the cell culture medium, and the reagents were purchased from Sigma-Aldrich (Merck KGaA). The expression vectors bearing the chimeric receptor containing the yeast Gal4-DNA binding domain fused to the human PPARγ-LBD, and the reporter plasmid for this Gal4 chimeric receptor (pGal5TKpGL3), comprising five repeats of the Gal4 response elements upstream of a minimal thymidine kinase promoter adjacent to the coding sequence for luciferase, were described in a previous study. A culture of the human hepatoblastoma cell line HepG2 (Interlab Cell Line Collection, Genoa, Italy) was conducted in minimum essential medium (MEM) containing 10% heat-inactivated fetal bovine serum, 100 U of penicillin G mL^−1, and 100 μg mL^−1 of streptomycin sulfate at 37 °C in a humidified atmosphere of 5% CO2. For transactivation assays, cells were seeded in a 24-well plate at a concentration of 10^5 cells per well and were transfected after 24 h by CAPHOS, a calcium phosphate method, according to the manufacturer’s guidelines. Cell transfection was performed using expression plasmids encoding the fusion protein Gal4-PPARγ-LBD (30 ng), pGal5TKpGL3 (100 ng), and pCMVβgal (250 ng). […] Cell extracts were subsequently analyzed for luciferase activity via luminometry (VICTOR^3 V multilabel plate reader; PerkinElmer, Waltham, MA, USA). ortho-Nitrophenyl-β-D-galactopyranoside was used to measure β-galactosidase activity, following a previously described method. […]
(§2) Furthermore, compounds 1–3 were evaluated in vitro for their agonist activity towards the human PPARγ subtype (hPPARγ) by employing the GAL4-PPAR transactivation assay. […] We evaluated the efficacy of 1–3 on PPARγ at increasing concentrations up to 100 μM. […] The compounds were also analyzed in antagonist mode by conducting a competitive binding assay, in which PPARγ activity was measured at a fixed concentration of the reference agonist rosiglitazone (1 µM) in cells treated with increasing concentrations of 1–3. […]

[2] = target: T1, human PPARγ subtype (hPPARγ), Gal4-PPARγ-LBD; assay: GAL4-PPAR transactivation assay, antagonist mode (competition with rosiglitazone); assay type: cell-based; details: HepG2, antagonist mode vs rosiglitazone 1 µM; mean ± SEM; uncertain above 10 µM because of cytotoxicity
Excerpt: as §1, §2

PPARγ-LBD = target: T2, PPARγ-LBD (Homo sapiens, UniProt P37231); assay: SPR full kinetic analysis on immobilized PPARγ-LBD; assay type: binding; details: for Kd: SPR full kinetic analysis, KD = Koff/Kon; for koff / kon: SPR, 25 °C, 5 μM to 312 nM, 1:1 model
T2 construct: PPARγ-LBD (NP_001120802; aa 207−474) was expressed as an N-terminal His-tagged protein; His-tag (N, cleaved yes); made in house; host or cells: E. coli BL21(DE3), pET-28a(+)
T2 sequence (P37231 207-474 isoform P37231-2 limits assumed): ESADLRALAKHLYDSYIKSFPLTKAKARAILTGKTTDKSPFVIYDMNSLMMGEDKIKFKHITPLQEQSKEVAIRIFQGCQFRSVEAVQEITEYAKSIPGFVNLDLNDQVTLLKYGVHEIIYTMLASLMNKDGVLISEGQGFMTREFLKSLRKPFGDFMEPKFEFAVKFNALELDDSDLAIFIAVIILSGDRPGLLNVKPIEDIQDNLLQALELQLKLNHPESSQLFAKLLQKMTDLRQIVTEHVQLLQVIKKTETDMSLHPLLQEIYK
Protocol: SPR experiments were performed at 25 °C using a Pioneer AE optical biosensor (Sartorius, Varedo, Italy) equipped with a PCH sensor chip (linear polycarboxylate hydrogel layer) and equilibrated with running buffer 10 mM Hepes, pH 7.4, 150 mM NaCl, 0.005% Tween-20, 1% DMSO. The PCH sensor chip was installed and conditioned in accordance with the manufacturer’s instructions. PPARγ-LBD was immobilized on the surface using amine coupling chemistry. Briefly, flow cells were activated for 5 min by injecting 125 μL of 1:1 ratio of 100 mM N-hydroxysuccinimide (NHS)/400 mM N-ethyl-N’-(3-(dimethylamino)propyl)carbodiimide (EDC). The protein solution (150 μg mL^−1 in 10 mM Na Acetate, pH 4.5) was then injected at 10 μL min^−1, followed by a 70 μL injection of 1 M ethanolamine (pH 8.0) to block any remaining activated groups on the surface. Approximately 11,770 and 10,800 RUs of protein were immobilized on Channel 1 and Channel 3 of the sensor chip, respectively, whereas Channel 2 was used as a reference for non-specific binding. […] The analytes were dialyzed in the running buffer (1% final DMSO concentration) and primary screened using OneStep® injection technology, which allows the compounds to diffuse into a moving stream of buffer to generate a concentration gradient (from 0 up to 10 μM) during a single injection at a flow rate of 50 μL min^−1 [40]. For each analyte injection, a long dissociation (600 s) was allowed, and regeneration of the sensing surface was not used. Next, the full kinetic analysis of the selected compounds was performed at different serial concentrations (from 5 μM to 312 nM) for 120 s at a constant flow rate of 50 μL min^−1. For each analyte injection, a dissociation of 180 s was allowed, followed by a short mild regeneration step with 1 M NaCl. All sensorgrams were processed using double referencing. First, responses from the reference surface (Channel 2) were subtracted from the binding responses collected over the reaction surfaces to correct for bulk refractive index changes between the flow buffer and analyte sample. Second, the response from the closest blank injection (zero analyte concentration) was subtracted to compensate for drift and small differences between the activated channel and the reference flow cell Channel 2. As an internal control for the gradient dispersion process, an injection of 3% sucrose dissolved in the assay buffer was performed for all the injections to ensure proper gradient formation and to calibrate for buffer viscosity. To obtain kinetic rate constants and affinity constants, the corrected response data were fitted in QDAT software provided with the instrument (BioLogic Software, Canberra, Australia). A kinetic analysis of the ligand/analyte interaction was obtained by fitting the response data to a reversible 1:1 bimolecular interaction model. The equilibrium dissociation constant (KD) was determined by the ratio Koff/Kon. This experiment was performed in duplicate.
The OneStep® injection technology was used for the screening of our compound collection. This method has been successfully employed in our previous work to test a series of natural products, extracted from medicinal plants. Its efficiency and reliability as a screening technique were confirmed by the rapid identification of promising compounds. This approach is based on the well-established concept of Taylor dispersion injection, which allows the compound to diffuse into a moving stream of buffer, producing a gradient throughout the injections. In this way, a wide range of analyte concentrations can be readily tested. In this assay, all the ligands from the DMSO stock solutions were dialyzed into the running buffer at 10 μM (1% final DMSO concentration) and gradient-injected for 120 s over the sensor chip surface. […]

CDK5/p35 = target: T3, CDK5/p35 (Homo sapiens, UniProt Q00535); assay: CDK5 inhibition test with histone H2A/H2B as substrate; assay type: biochemical; details: 5 µM ligand, H2a/H2b as phosphorylation target
T3 construct: purchased Sigma-Aldrich (Merck KGaA) SRP5011
Protocol: The degree of CDK5 inhibition in the presence of compounds 1, 2, and 3 was evaluated with the same protocol described above for the in vitro kinase assay. In detail, the test was carried out for 30 min at 30 °C in 50 μL of the assay buffer containing 50 mM Tris-HCl, pH 7.5, 800 ng H2A/H2B, 5 μM ligand (for the calculation of the ligand concentration, the excess amount of compounds 1, 2, and 3 possibly not bound to PPARγ was overestimated), 1% DMSO, 2.5 mM MgCl2, 50 μM DTT, 500 μM ATP, 40 ng of CDK5/p35 (Sigma-Aldrich code no. SRP5011; Merck KGaA). The Pro-Q™ Diamond Phosphoprotein Gel Stain method and a Chemidoc Imaging System (Bio-Rad) were used for measuring the phosphorylation level. The experiment was performed in triplicate and the statistical significance was estimated as above.
Furthermore, these molecules were also screened as potential inhibitors of CDK5 itself, considering their structural similarity to BLI (Figure 2), which was reported in the literature as both a PPARγ partial agonist and a CDK5 inhibitor [10]. A kinase activity test was performed in the presence of compounds 1, 2, and 3, using histone H2a/H2b as a phosphorylation target.

[3] = tested on: PPARγ Ser245 phosphorylation by CDK5/p35; assay: In vitro kinase assay: CDK5-mediated phosphorylation of PPARγ-LBD (Pro-Q Diamond stain); assay type: biochemical; details: 10 µM ligand, 30 min at 30 °C
Protocol: The assay was performed on PPARγ-LBD, in the apo-form and in the complex with ligands 1–3. For the kinase assay, stock solutions of ligands were prepared by diluting with 100% DMSO to a concentration of 500 μM. The stock solutions were further diluted with 50 mM Tris-HCl, pH 7.5, up to the final concentration of 10 μM and pre-equilibrated overnight at 4 °C with the protein.
The kinase assay was carried out for 30 min at 30 °C in 50 μL of the assay buffer containing 50 mM Tris-HCl, pH 7.5, 800 ng of PPARγ-LBD, 10 μM ligand, 1% DMSO, 2.5 mM MgCl2, 50 μM DTT, 500 μM ATP, 40 ng of CDK5/p35 (Sigma-Aldrich code no. SRP5011; Merck KGaA). The experiment was performed in triplicate.
Pro-Q™ Diamond phosphoprotein gel stain (ThermoFisher, Waltham, MA, USA) provides a convenient method for selectively staining phosphoproteins in acrylamide gels, without the need for blotting or the use of phosphoprotein-specific antibodies. After performing electrophoresis, the gel was stained with Pro-Q™ Diamond and analyzed using a Chemidoc Imaging System (Bio-Rad). A further step of gel staining with SYPRO™ Ruby total-protein gel stain (ThermoFisher) was performed. Determining the ratio of the signal intensities of Pro-Q™ Diamond dye to SYPRO™ Ruby dye for each band provides a measure of the phosphorylation level normalized to the total amount of protein. More detailed information on the protocol used in this experiment can be obtained on the ThermoFisher website.
Finally, to assess the ability of 1–3 to inhibit the CDK5-mediated phosphorylation of PPARγ in vitro, a kinase assay was set up and optimized to measure the inhibition rate, as described in the experimental section. The phosphoproteins were detected and quantified by using the Pro-Q™ Diamond phosphoprotein gel stain method.

HepG2 = assay: Cytotoxicity seen by microscopy in the transactivation assay; assay type: cell-based, human; details: HepG2, at 25 and 100 µM, visually examined, data not shown
Protocol: Furthermore, compounds 1–3 were evaluated in vitro for their agonist activity towards the human PPARγ subtype (hPPARγ) by employing the GAL4-PPAR transactivation assay. The results were compared to the corresponding data for rosiglitazone, used as a reference in the test. The maximum fold induction obtained with the reference agonist was defined as 100%. We evaluated the efficacy of 1–3 on PPARγ at increasing concentrations up to 100 μM. […] The compounds were also analyzed in antagonist mode by conducting a competitive binding assay, in which PPARγ activity was measured at a fixed concentration of the reference agonist rosiglitazone (1 µM) in cells treated with increasing concentrations of 1–3. The inhibition curves, from which the IC50 values were extrapolated as mean ± SEM of three duplicate experiments, are reported in Figure 4A. […] Consequently, the IC50 values could not be estimated with a certainty above 10 µM, which was the threshold at which the cytotoxicity was null or negligible. From the inhibition curves (Figure 4A), we hypothesized the absence of antagonism: the activity remained unchanged up to 10 µM and then decreased at 25 µM and 100 µM. However, at these concentrations, the signal reduction could not be unequivocally attributed to PPARγ antagonism, due to the cytotoxic effects of the compounds at higher doses.

T3 sequence (Q00535 whole entry): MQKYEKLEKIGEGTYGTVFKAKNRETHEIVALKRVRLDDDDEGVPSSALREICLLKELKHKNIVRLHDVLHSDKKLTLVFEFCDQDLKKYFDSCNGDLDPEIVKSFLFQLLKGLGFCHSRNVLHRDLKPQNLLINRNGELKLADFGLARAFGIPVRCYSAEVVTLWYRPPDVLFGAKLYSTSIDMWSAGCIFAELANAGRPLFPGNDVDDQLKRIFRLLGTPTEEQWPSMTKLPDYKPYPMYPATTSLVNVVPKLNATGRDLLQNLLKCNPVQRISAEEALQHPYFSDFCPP
T3 sequence (Q15078 whole entry partner): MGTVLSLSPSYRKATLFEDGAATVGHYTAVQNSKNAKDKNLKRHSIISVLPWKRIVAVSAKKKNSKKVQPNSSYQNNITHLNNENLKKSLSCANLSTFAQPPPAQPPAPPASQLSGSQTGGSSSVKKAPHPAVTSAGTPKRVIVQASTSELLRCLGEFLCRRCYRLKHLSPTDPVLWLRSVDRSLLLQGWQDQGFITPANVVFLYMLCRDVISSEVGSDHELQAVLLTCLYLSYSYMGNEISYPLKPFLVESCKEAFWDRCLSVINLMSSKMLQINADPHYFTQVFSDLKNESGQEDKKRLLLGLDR

agonist activity in the PPARγ transactivation assay [1]	melting point	Kd (PPARγ-LBD) [µM]	koff (PPARγ-LBD) [s⁻¹]	kon (PPARγ-LBD) [M⁻¹ s⁻¹]	CDK5 inhibition (CDK5/p35)	inhibition of Ser245 phosphorylation [3] [%]	Compound	IC50 [2] [µM]	cytotoxicity (HepG2)
PPARγ non-agonists	194 to 195 °C (dec.)	3.75 ± 0.06	0.0679 ± 0.0004	18100 ± 3e+06	very low inhibition effect	~40	O=C1OC(c2cccc(O)c2)C(c2ccc(Br)cc2)=C1O (stereo not drawn) [Compound 1, 4-(4-Bromophenyl)-3-hydroxy-5-(3-hydroxyphenyl)furan-2(5H)-one]	39.9 ± 1.2	
PPARγ non-agonists		1.93 ± 0.02	0.02241 ± 9e-05	11700 ± 1e+06	more significant inhibitory activity	~40	O=C1OC(c2cccc(O)c2)C(C(=O)c2ccccc2)=C1O (stereo not drawn) [Compound 2, 4-Benzoyl-3-hydroxy-5-(3-hydroxyphenyl)furan-2(5H)-one]	35.1 ± 2.8	
PPARγ non-agonists	204 °C	1.67 ± 0.02	0.0362 ± 0.0001	21700 ± 2e+06	more significant inhibitory activity	~40	O=C1OC(c2ccc(OCc3cccc4ccccc34)cc2)C(c2ccccc2)=C1O (stereo not drawn) [Compound 3, 3-Hydroxy-5-(4-(naphthalen-1-ylmethoxy)phenyl)-4-phenylfuran-2(5H)-one]	16.2 ± 2.5	a certain cytotoxicity
